# Data taken from US4770996A, “Identification of individuals predisposed toward alcohol abuse” (priority 1986, dated 1988).
# Columns and labels:
# [1] = tested on: platelet adenylate cyclase; experiment: Platelet membrane adenylate cyclase (AC) assay, 32P-ATP to 32P-cAMP; type: biochemical, human; design: Adenylate Cyclase Activity - CsF-Stimulated / Adenylate Cyclase Activity - CsF-Stimulated, Mean ± SD: unit not given here; settings: for Adenylate Cyclase Activity - CsF-Stimulated / Adenylate Cyclase Activity - CsF-Stimulated, Mean ± SD / Enzyme Activity +CsF: CsF 10 mM; for Enzyme Activity +Gpp(NH)p / Enzyme Activity +PGE1 (1 uM): mean ± SD; for Enzyme Activity +Gpp(NH)p: Gpp(NH)p 10 uM
# Experimental: Platelets were prepared from whole blood (20 ml) which was obtained by venipuncture from healthy volunteers and alcoholic subjects. After standing at room temperature for approximately three to four hours in citrate-phosphate-dextrose solution, each blood sample was centrifuged at 180×G for two minutes. […] The PRP was centrifuged at 16,000 g for ten minutes. The pellet was resuspended in 50 ml of cold 50 mM Tris-HCl, pH 7.5, containing […] NaCl and 20 mM ethylene diamine tetraacetic acid (EDTA). The centrifugation was repeated twice, and the final pellet was resuspended in 1 ml of cold 5 mM Tris-HCl, pH 7.5, containing 5 mM EDTA. Suspensions were rapidly frozen at -70° C., and samples were stored at -70° C. for no longer than four weeks prior to assay. AC activity was assayed by a modification of previously described methods, Hoffman and Tabakoff, J. Pharmacol. Exptl. […] Platelets were thawed at room temperature, aliquots of platelets were diluted to 4 ml with 5 mM Tris-HCl buffer containing 5 mM EDTA, and the suspension was centrifuged at 39,000×G for ten minutes at 4° C. […] The reaction was stopped by placing the tubes in a boiling water bath for three minutes. […] The ^32 p-cAMP was isolated by sequential chromatography on Dowex (Sigma Chemical Co., St. Louis, Mo.) and alumina columns (Sigma Chemical Co., St. Louis, Mo.), Salomon et. al., Anal. […] To each column effluent, 10 ml of scintilation cocktail was added, and ^32 p-cAMP was quantitated in a liquid scintillation spectrometer. All values were corrected for percentage recovery of the product (^32 p-cAMP).
# [2] = tested on: platelet adenylate cyclase; settings: Jakobs et al., J. Recep. Res. 4:443-458, 1984; cited from earlier work
# [3] = target: T1, platelet monoamine oxidase (MAO) (Homo sapiens, UniProt P27338); experiment: Platelet monoamine oxidase (MAO) assay, deamination of 14C-PEA; type: biochemical; settings: for Percent Inhibition by 400 mM Ethyl Alcohol / Percent Inhibition by 400 mM Ethyl Alcohol, Mean ± SD / Percent Inhibition by 400 mM ETOH: 12 uM PEA; for Percent Inhibition by 400 mM ETOH: mean ± SD
# T1 construct: contained approximately 15 ug of platelet protein; from tissue; host or cells: platelets (membranes) from whole blood of volunteers and alcoholic subjects
# T1 sequence (P27338 1-520): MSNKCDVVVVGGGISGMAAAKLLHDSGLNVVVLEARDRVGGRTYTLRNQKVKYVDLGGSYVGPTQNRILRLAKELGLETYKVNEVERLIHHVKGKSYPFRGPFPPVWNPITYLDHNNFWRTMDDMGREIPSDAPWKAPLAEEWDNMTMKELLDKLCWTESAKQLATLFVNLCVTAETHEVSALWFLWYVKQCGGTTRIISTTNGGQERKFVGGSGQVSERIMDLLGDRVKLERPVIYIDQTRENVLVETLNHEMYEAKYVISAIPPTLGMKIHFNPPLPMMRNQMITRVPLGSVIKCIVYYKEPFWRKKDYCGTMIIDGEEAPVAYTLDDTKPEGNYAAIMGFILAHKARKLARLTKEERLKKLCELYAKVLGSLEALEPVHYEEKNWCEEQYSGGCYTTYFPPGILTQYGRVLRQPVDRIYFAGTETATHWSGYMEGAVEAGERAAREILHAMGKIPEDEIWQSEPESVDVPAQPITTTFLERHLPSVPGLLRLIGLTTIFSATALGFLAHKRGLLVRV
# Experimental: Platelets were prepared from whole blood (20 ml) which was obtained by venipuncture from healthy volunteers and alcoholic subjects. After standing at room temperature for approximately three to four hours in citrate-phosphate-dextrose solution, each blood sample was centrifuged at 180×G for two minutes. The platelet-rich plasma (PRP) was carefully removed and platelet count was determined from aliquots (20 ul) of the PRP with a Coulter S-plus Thrombocounter. The PRP was centrifuged at 16,000 g for ten minutes. The pellet was resuspended in 50 ml of cold 50 mM Tris-HCl, pH 7.5, containing […] NaCl and 20 mM ethylene diamine tetraacetic acid (EDTA). The centrifugation was repeated twice, and the final pellet was resuspended in 1 ml of cold 5 mM Tris-HCl, pH 7.5, containing 5 mM EDTA. Suspensions were rapidly frozen at -70° C., and samples were stored at -70° C. for no longer than four weeks prior to assay.
# To measure the deamination of ^14 C-PEA, assay mixtures (total volume, 0.3 ml) contained approximately 15 ug of platelet protein. Reactions were carried out in 0.1 M sodium phosphate, pH 7.4, at 37° C. A five-minute preincubation period preceded the addition of substrate, and blanks were preincubated in the presence of 1×10^-3 M pargyline. Appropriate concentrations of ^14 C-PEA (10,000 dpm per nmole) were added to initiate the reaction, and the incubation was carried out for 15 minutes. The reaction was stopped by placing the tubes in an ice bath and adding 1.0 ml of ice-cold unlabeled PEA solution (10^-4 M) to each assay tube. A 1-ml aliquot was then removed from each tube and placed on an Amberlite™ ion exchange column, Tabakoff et. al., Psychopharmacol. 87:152 (1985). The columns were washed with two 1-ml portions of distilled water and the effluent was collected in scintillation vials. Two additional ml of water and 20 ml of scintillation fluid were added to each vial, and radioactivity was determined in a liquid scintillation spectrometer. To study the effects of ethanol or other alcohols on MAO activity, the alcohols were added to incubation mixtures five minutes prior to the addition of substrate.
compound,measurement,setting,value
"[Cs+].[F-] [CsF, cesium fluoride]",Adenylate Cyclase Activity - CsF-Stimulated,"[1]; control subject No. 5, Sample 1",83.6
same,Adenylate Cyclase Activity - CsF-Stimulated,"[1]; control subject No. 5, Sample 2 (one week interval)",69.5
same,Adenylate Cyclase Activity - CsF-Stimulated,"[1]; control subject No. 5, Sample 3 (one week interval)",72.3
same,"Adenylate Cyclase Activity - CsF-Stimulated, Mean ± SD","[1]; control subject No. 5, mean of 3 samples",75.1 ± 7.5
same,Adenylate Cyclase Activity - CsF-Stimulated,"[1]; control subject No. 6, Sample 1",104.2
same,Adenylate Cyclase Activity - CsF-Stimulated,"[1]; control subject No. 6, Sample 2 (one week interval)",98.0
same,Adenylate Cyclase Activity - CsF-Stimulated,"[1]; control subject No. 6, Sample 3 (one week interval)",100.2
same,"Adenylate Cyclase Activity - CsF-Stimulated, Mean ± SD","[1]; control subject No. 6, mean of 3 samples",100.8 ± 3.1
same,Enzyme Activity +CsF,"[1]; platelets of Alcoholics, mean (SD 27.8), n=107, significant vs control",78.2 pmole cAMP/mg protein/minute
same,Enzyme Activity +CsF,"[1]; platelets of Controls, mean (SD 28.7), n=49",97.9 pmole cAMP/mg protein/minute
same,Enzyme Activity +CsF,"[1]; platelets of Recovering Alcoholics, mean (SD 27.2), n=38, significant vs control",70.6 pmole cAMP/mg protein/minute
"Nc1nc2c(ncn2[C@@H]2O[C@H](COP(=O)(O)OP(=O)(O)NP(=O)(O)O)[C@@H](O)[C@H]2O)c(=O)[nH]1 [Gpp(NH)p, guanylylimidodiphosphate]",Enzyme Activity +Gpp(NH)p,"[1]; platelets of Alcoholics, n=43, significant vs control",37.8 ± 14.4 pmole cAMP/mg protein/minute
same,Enzyme Activity +Gpp(NH)p,"[1]; platelets of Controls, n=36",50.4 ± 15.0 pmole cAMP/mg protein/minute
same,Enzyme Activity +Gpp(NH)p,"[1]; platelets of Recovering Alcoholics, n=23, significant vs control",37.2 ± 16.5 pmole cAMP/mg protein/minute
Nc1ncnc2c1ncn2[C@@H]1O[C@H](COP(=O)(O)OP(=O)(O)OP(=O)(O)O)[C@@H](O)[C@H]1O [Mg-adenosine triphosphate],maximal activity (Vmax) of adenylate cyclase,"[1]; platelets of control subjects, 10 mM Mg++, varying ATP, mean±SD, n=3",15.1±2.4 pmole cAMP produced/min/mg pro
same,Km,"[1]; platelets of control subjects, 10 mM Mg++, varying ATP, mean±SEM, n=3, read-out: Km of adenylate cyclase for Mg-adenosine triphosphate (ATP)",20.1 ± 3.8 µM
[Na+] [Na^+],effect of sodium ion on stimulation of platelet AC activity,[2],inhibits stimulation of platelet AC activity
"CCCCC[C@H](O)/C=C/[C@H]1[C@H](O)CC(=O)[C@@H]1CCCCCCC(=O)O [PGE1, prostaglandin E1]",Enzyme Activity +PGE1 (1 uM),"[1]; platelets of Alcoholics, n=34, significant vs control",84.4 ± 36.1 pmole cAMP/mg protein/minute
same,Enzyme Activity +PGE1 (1 uM),"[1]; platelets of Controls, n=21",115.5 ± 32.9 pmole cAMP/mg protein/minute
same,Enzyme Activity +PGE1 (1 uM),"[1]; platelets of Recovering Alcoholics, n=8, significant vs control and vs alcoholics",42.7 ± 12.8 pmole cAMP/mg protein/minute
CCO [ethyl alcohol],nature of MAO inhibition by ethyl alcohol added in vitro,"[3]; in vitro, amount of inhibition depended on substrate concentration","reversible and was ""competitive"" in nature"
same,Percent Inhibition by 400 mM Ethyl Alcohol,"[3]; patient No. 1, Sample 1 (baseline)",7.0%
same,Percent Inhibition by 400 mM Ethyl Alcohol,"[3]; patient No. 1, Sample 2 (five days later)",7.6%
same,Percent Inhibition by 400 mM Ethyl Alcohol,"[3]; patient No. 1, Sample 3 (six days later)",6.1%
same,"Percent Inhibition by 400 mM Ethyl Alcohol, Mean ± SD","[3]; patient No. 1, mean of 3 samples",6.9 ± 0.8%
same,Percent Inhibition by 400 mM Ethyl Alcohol,"[3]; patient No. 2, Sample 1 (baseline)",13.1%
same,Percent Inhibition by 400 mM Ethyl Alcohol,"[3]; patient No. 2, Sample 2 (five days later)",7.9%
same,Percent Inhibition by 400 mM Ethyl Alcohol,"[3]; patient No. 2, Sample 3 (six days later)",9.8%
same,"Percent Inhibition by 400 mM Ethyl Alcohol, Mean ± SD","[3]; patient No. 2, mean of 3 samples",10.3 ± 2.6%
same,Percent Inhibition by 400 mM ETOH,"[3]; platelets of Alcoholics, n=54, P < 0.01 vs control",12.6 ± 7.0%
same,Percent Inhibition by 400 mM ETOH,"[3]; platelets of Controls, n=28",7.5 ± 6.9%
same,Percent Inhibition by 400 mM ETOH,"[3]; platelets of Recovering Alcoholics, n=22, P < 0.05 vs control",11.4 ± 6.2%
